Measurements published in publication PMC2895771 (Journal of the American Chemical Society, 2010).

Assays:
[1] = biological target: T1, GST-fused PHD finger of ING2 (GST-ING2PHD) (Homo sapiens, UniProt Q9H160); assay: UV photocrosslinking labeling of recombinant GST-ING2PHD by probe 1; type: biochemical; conditions: UV irradiation 1 h, coupled to rhodamine azide; in words
T1 sequence (Q9H160 212-261 limits assumed): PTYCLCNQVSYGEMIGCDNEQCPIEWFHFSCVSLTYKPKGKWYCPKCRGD

PHD finger of BPTF = assay: labeling of recombinant BPTF PHD finger by probe 1 and competition by peptides; type: biochemical; conditions: probe 1 (1 μM), protein 100 ng; in words
[2] = tested on: double tudor domain of JMJD2A; type: biochemical; conditions: probe 1 (1 μM), protein 100 ng; in words
GST-ING2PHD = type: biochemical; conditions: probe 1 (1 μM); GST-ING2PHD 10 μg/mL, 280 nM; Hela cell lysates 2 mg/mL; in words
endogenous ING2 = assay: capture of endogenous ING2 from Hela cell lysates; conditions: probe 1 (2 μM), UV, biotin-N3, streptavidin, Western blot, in words

With “probe 1: H3K4me3 peptide probe; benzophenone moiety replaced the side chain of Ala 7; spacer (H3 residues 8–15) and an alkyne (ARTKQT; not fully specified; trimethyl-lysine at 4 (K(me3)); benzophenone moiety in place of the side chain of Ala 7; an alkyne group)” the “labeling of the recombinant protein” value [1] was “successfully labeled the recombinant protein in a dose-dependent manner”, the “labeling of recombinant protein” value (PHD finger of BPTF) was “robust labeling” and the “labeling of recombinant protein” value [2] was “robust labeling”. The “labeling of GST-ING2PHD in cell lysates” value (GST-ING2PHD) was “robustly labeled” and the “capture of endogenous ING2” value (endogenous ING2) was “endogenous ING2 was captured by the probe”.
